Results as given in patent US20150141375A1 (priority 2009, published 2015).

Experiments:
BK Virus = assay: In vitro potency against BK Virus in WI-38 cells; assay type: cell-based
JCV (Mad-4) = JCV (Mad-4) replication in COS-7 cells (qPCR, immunofluorescence); assay type: cell-based, JC virus
EBV = assay: Patients with EBV-associated PTLD treated with CMX001; assay type: in vivo, human
Source text: The first patient is a patient with a history of sickle cell anemia developed EBV-associated intracranial post-transplant lymphoproliferative disorder (PTLD). EBV was positive in the plasma (7 Dec. and 14 Dec. 2010) and brain biopsies were consistent with PTLD. In early December, the patient presented with a 3 day history of persistent headache, nausea, vomiting, and diarrhea. […] The patient was admitted to PICU. High intracranial pressure, repetitive seizures associated with apnea led to intubtion and emergency request for CMX001. The use of CMX001 in this patient with EBV-associated PTLD is ongoing since 26 Dec. 2009.
The second patient was a heart transplant recipient with EBV-associated PTLD. The patient acquired a primary EBV infection post-operatively. […] The clinical condition continued to destabilize with what was presumed to be EBV-associated encephalitis with EBV detected in the CSF, clinical and EEG-correlated seizure activity and decreased responsiveness and changes in mental status. At the time of request for CMX001, the patient was on mechanical ventilation, had evidence of both pneumonia and PTLD of their lungs, evidence of seizure activity with clinical criteria for encephalopathy being present. The patient received their first dose of CMX001, 20 mg (approximately 3.3 mg/kg) on 3 Mar. 2010, and their second dose on 7 Mar. […] The patient continued to show evidence of progressive neurologic injury. The parents withdrew support on the day following their second dose of CMX001.

Vaccinia Virus = assay: microbe, parasite or virus in culture; assay type: cell-based
HSV-2, strain MS = conditions: previous work; cited from earlier work
HSV-2 = assay: In vitro efficacy against HSV-2 strains in HFF (CPE, plaque reduction); assay type: cell-based
Source text: In vitro screening by CPE assay in human foreskin fibroblast (HFF) cells with confirmation using plaque reduction assays in HFF.

CCCCCCCCCCCCCCCCOCCCOP(=O)(O)CO[C@H](CO)Cn1ccc(N)nc1=O [CMX001, Hexadecyloxypropyl-cidofovir]
EC50 (BK Virus; Betapolyomavirus hominis, WI-38): 130 nM | selectivity index (SI)-50 (BK Virus; WI-38, cells harvested 7 days after infection): 113 | reduction of extracellular JCV loads (JCV (Mad-4); 0.6 μM CMX001): approximately 90% | JCV VP1 immunofluorescence (JCV (Mad-4); 1.25 μM CMX001, 7 d.p.i.): significant reduction of JCV VP1 signal | change in the JCV load over 7 days (JCV (Mad-4); 5 μM CMX001): less than 1 log | JCV VP1 immunofluorescence (JCV (Mad-4); 5 μM CMX001, 7 d.p.i.): essentially no VP1 positive cells could be observed | extracellular JCV load (JCV (Mad-4); 5 μM CMX001, 7 d.p.i. (day 1: 1.34×10^7; untreated: 5.67×10^10)): 8.85×10^7 geq/ml | IC90 (JCV (Mad-4); JC polyomavirus, 120 h, COS-7, 5 d.p.i., viral input subtracted, read-out: IC-90, extracellular JCV load): 600 nM | EC50 (JCV (Mad-4); JC polyomavirus, 120 h, COS-7, 5 days): 150 nM | EBV viral load (EBV; heart transplant recipient, 7 Mar. 2010 after first dose 20 mg (3 Mar. 2010: 267,338)): 47,427 copies/mL | EBV in the plasma (EBV; patient, 4 mg/kg twice weekly): remains negative | tolerability (EBV; patient, 4 mg/kg twice weekly): tolerated CMX001 well | Enhanced Activity (Vaccinia Virus; CMX001 versus cidofovir EC50): 57 | EC50 (Vaccinia Virus; Orthopoxvirus vaccinia, HFF): 800 nM | optimal dose of CMX001 in this model (HSV-2, strain MS): 5 mg/kg | EC50 (HSV-2; Human alphaherpesvirus 2, ACV resistant strain 11572): 27 ± 18 nM | EC50 (HSV-2; Human alphaherpesvirus 2, ACV resistant strain 11680): 9 ± 0.7 nM | EC50 (HSV-2; Human alphaherpesvirus 2, ACV resistant strain 12247): 21 ± 12 nM | EC50 (HSV-2; Human alphaherpesvirus 2, ACV resistant strain AG-3): 23 ± 9 nM | EC50 (HSV-2; Human alphaherpesvirus 2, G (wild type), Table 9): 29 ± 15 nM | EC50 (HSV-2; Human alphaherpesvirus 2, strain G): 10 ± 10 nM | EC50 (HSV-2; Human alphaherpesvirus 2, strain MS): 80 ± 70 nM | EC50 (HSV-2; Human alphaherpesvirus 2, strain SR): 20 ± 20 nM
